This is an account of results in BindingDB's records for patent US20250034168 (Xizang Haisco Pharmaceutical, 2025).

As a reminder, the IC50 is the concentration that gives 50% inhibition. A higher IC50 goes with a need for much substance.

The test addresses Poly [ADP-ribose] polymerase 1 (Homo sapiens, UniProt P09874). The experiment in a line: PARP-1 Enzyme Activity Assay. As for the experimental part:
PARP-1 chemical […] detection kit was purchased from BPS Bioscience. The histone solution in the kit was diluted 5× with 1×PBS, and 25 μL of the diluted histone solution was added to a microwell plate and incubated overnight at 4° C. After the incubation, the plate was washed three times with PBST (0.05% Tween-20). 100 μL of the blocking solution was added to the microwell plate and incubated at 25° C. for 90 minutes. After the incubation, the plate was washed three times with PBST. 2.5 μL of compounds at different concentrations diluted in test buffer and 12.5 μL of substrate mixed solution (1.25 μL 10×PARP test buffer; 1.25 μL 10×PARP test mixed solution; 2.5 μL Activated DNA, 7.5 μL double-distilled water) were added to the microwell plate. […] Streptavidin-HRP was diluted 50× with a blocking solution, and 25 μL of the diluent was added to the microwell plate and incubated at 25° C. for 30 minutes. After the incubation, the plate was washed three times with PBST. ELISA ECL substrate A and substrate B were mixed at a ratio of 1:1 (v/v), 50 μL of the mixture was added to the microwell plate, and the chemiluminescence value was read.

Chain of Poly [ADP-ribose] polymerase 1 (P09874 whole entry): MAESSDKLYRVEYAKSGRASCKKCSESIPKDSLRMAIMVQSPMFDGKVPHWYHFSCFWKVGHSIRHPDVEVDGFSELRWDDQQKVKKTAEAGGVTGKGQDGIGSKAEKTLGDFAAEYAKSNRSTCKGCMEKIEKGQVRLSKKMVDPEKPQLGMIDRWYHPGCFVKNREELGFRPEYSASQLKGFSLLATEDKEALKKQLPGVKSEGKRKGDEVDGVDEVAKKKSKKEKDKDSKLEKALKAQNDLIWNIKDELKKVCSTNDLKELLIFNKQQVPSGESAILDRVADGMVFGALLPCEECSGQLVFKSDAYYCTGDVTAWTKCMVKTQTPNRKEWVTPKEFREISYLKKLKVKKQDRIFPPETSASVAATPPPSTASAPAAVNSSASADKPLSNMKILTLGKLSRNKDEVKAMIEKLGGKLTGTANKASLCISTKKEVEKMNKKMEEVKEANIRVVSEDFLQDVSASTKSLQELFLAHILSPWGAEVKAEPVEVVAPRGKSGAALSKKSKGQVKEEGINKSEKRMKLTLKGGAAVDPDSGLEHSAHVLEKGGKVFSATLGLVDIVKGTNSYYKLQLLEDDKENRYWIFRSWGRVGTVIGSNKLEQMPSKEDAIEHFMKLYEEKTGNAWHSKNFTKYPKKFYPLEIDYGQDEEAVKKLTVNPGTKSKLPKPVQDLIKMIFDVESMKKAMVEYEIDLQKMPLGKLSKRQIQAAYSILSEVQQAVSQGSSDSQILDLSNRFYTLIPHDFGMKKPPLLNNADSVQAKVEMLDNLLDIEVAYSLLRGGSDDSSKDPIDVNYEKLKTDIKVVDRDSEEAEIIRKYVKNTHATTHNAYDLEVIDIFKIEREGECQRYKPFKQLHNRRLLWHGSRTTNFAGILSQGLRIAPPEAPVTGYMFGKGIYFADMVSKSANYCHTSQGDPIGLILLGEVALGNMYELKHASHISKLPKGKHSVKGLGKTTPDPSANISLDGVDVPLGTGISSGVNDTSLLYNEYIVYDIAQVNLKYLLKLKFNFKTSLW

`CCc1cc2ncc(CN3CCC(Nc4ccc(C(=O)NC)nc4)C3)cc2[nH]c1=O` (stereo unspecified) [US20250034168, Compound 7] had an IC50 of 2.8 nM.
